In US11319317B2, “(Hetero)arylamide compound for inhibiting protein kinase activity” (Shenzhen TargetRx, Inc., priority 2017, dated 2022):
Like-named read-outs stand apart in the source and are kept apart here.

Columns and labels:
[1] = system: Ba/F3 parent cells; assay: Cytotoxicity experiment (CellTiter-Glo), Ba/F3 parent cells; assay type: cell-based; conditions: Ba/F3 parental cells with 8 ng/ml IL-3, 3 days incubation
Procedure: 1. […] The cell plates were placed in carbon dioxide culture and incubated overnight.
2. Preparation of test compounds: The test compounds were dissolved in DMSO and subjected to a 3.16-fold gradient dilution in triplicate, 9 concentrations were obtained, starting from the concentration of 10 μM.
3. Treatment of Cells with compounds: Compounds at various concentrations were transferred to cell plates. The cell plates were incubated in a carbon dioxide incubator for 3 days.
4. Detection: CellTiter-Glo4 reagent was added to the cell plates, which were incubated for 30 minutes at room temperature to stabilize the luminescence signal. Readings were performed using a PerkinElmer Envision multi-label analyzer.

[2] = system: Ebola virus; conditions: in vitro; cited from earlier work
[3] = Pharmacokinetic experiment in rats; assay type: in vivo, Sprague-Dawley rats; set-up: Cl pred: unit not given here; conditions: rat; for MRT inf: read-out: MRTINF pred; for F (oral availability): PO 20 mg/kg vs IV 2 mg/kg
Procedure: Rats were fed with a standard diet and water. Fasting began 16 hours before the test. The drugs were dissolved in PEG400 and dimethyl sulfoxide. Blood was collected from the eyelids at a time point of 0.083 hour, 0.25 hour, 0.5 hour, 1 hour, 2 hours, 4 hours, 6 hours, 8 hours, 12 hours, and 24 hours after administration. Rats were briefly anesthetized after inhalation of ether, and 300 μL of blood samples were collected from the eyelids to test tubes. There was 30 μL of 1% heparin salt solution in the test tube. […] After the blood sample was collected at the last time point, rats were anesthetized with ether and sacrificed. Immediately after the collection, blood samples were sufficiently mixed by gently inverting the tube at least 5 times, and were placed on ice. […] Plasma was stored at −80° C. prior to analysis. The concentration of the compounds disclosed herein in plasma was determined by LC-MS/MS. Pharmacokinetic parameters were calculated based on drug concentrations in plasma of each animal at different time points.

[4] = system: CML; conditions: combined with nilotinib; cited from earlier work
[5] = male, Sprague-Dawley, plasma, IV 2 mg/kg single dose
[6] = male, Sprague-Dawley, plasma, PO 20 mg/kg single dose

SMILES: O=C(Nc1ccc(OC(F)(F)Cl)cc1)c1cnc(N2CC[C@@H](O)C2)c(-c2ncns2)c1 [Example 6]
- IC50 ([1]; Mus musculus, BaF3, 72 h): > 1000 nM

SMILES: Cc1ccc(NC(=O)c2ccc(CN3CCN(C)CC3)cc2)cc1Nc1nccc(-c2cccnc2)n1 [Imatinib]
- release of Ebola viral particles from infected cells [2]: stop the release of Ebola viral particles

SMILES: Cc1cn(-c2cc(NC(=O)c3ccc(C)c(Nc4nccc(-c5cccnc5)n4)c3)cc(C(F)(F)F)c2)cn1 [nilotinib]
- release of Ebola viral particles from infected cells [2]: stop the release of Ebola viral particles

SMILES: O=C(Nc1ccc(OC(F)(F)Cl)cc1)c1cnc(N2CC[C@@H](O)C2)c(-c2cnsc2)c1 [Example 2, (R)-6-(3-hydroxypyrrolidin-1-yl)-5-(isothiazol-4-yl)-N-(4-(chlorodifluoromethoxy)phenyl) nicotinamide]
- IC50 ([1]; Mus musculus, BaF3, 72 h): > 1000 nM
- AUC(0-t) [3, 5]: 5450 ng·h/mL
- Cmax [3, 5]: 5280 ng/mL
- MRT inf [3, 5]: 1.17 h
- Vd ([3]; male, Sprague-Dawley, plasma, IV 2 mg/kg single dose, read-out: Vz pred): 0.57 L/kg
- AUC(0-t) [3, 6]: 21100 ng·h/mL
- Cmax [3, 6]: 2580 ng/mL
- MRT inf [3, 6]: 5.13 h
- Cl pred ([3]; IV 2 mg/kg single dose): 0.37
- Cl pred ([3]; PO 20 mg/kg single dose): 0.96
- Vz pred ([3]; PO 20 mg/kg single dose): 2.56 L/kg
- F (oral availability) [3]: 38.70%
- metabolic parameters (Cmax, AUClast, F %) compared with ABL-001 ([3]; oral administration): better metabolic parameters

SMILES: O=C(Nc1ccc(OC(F)(F)Cl)cc1)c1cnc(N2CC[C@@H](O)C2)c(-c2ccns2)c1 [Example 3, (R)-6-(3-hydroxypyrrolidin-1-yl)-5-(isothiazol-5-yl)-N-(4-(chlorodifluoromethoxy)phenyl) nicotinamide]
- IC50 ([1]; Mus musculus, BaF3, 72 h): > 1000 nM

SMILES: O=C(Nc1ccc(OC(F)(F)Cl)cc1)c1cnc(N2CC[C@@H](O)C2)c(-c2ccsn2)c1 [Example 1, (R)-6-(3-hydroxypyrrolidin-1-yl)-5-(isothiazol-3-yl)-N-(4-(chlorodifluoromethoxy)phenyl) nicotinamide]
- IC50 ([1]; Mus musculus, BaF3, 72 h): > 1000 nM

SMILES: O=C(Nc1ccc(OC(F)(F)Cl)cc1)c1cnc(N2CC[C@@H](O)C2)c(-c2cnn[nH]2)c1 [Example 4, (R)-6-(3-hydroxypyrrolidin-1-yl)-5-(1H-1,2,3-triazol-5-yl)-N-(4-(chlorodifluoromethoxy)phenyl)nicotinamide]
- IC50 ([1]; Mus musculus, BaF3, 72 h): > 1000 nM

SMILES: O=C(Nc1ccc(OC(F)(F)Cl)cc1)c1cnc(N2CC[C@@H](O)C2)c(-c2nnn[nH]2)c1 [Example 5, (R)-6-(3-hydroxypyrrolidin-1-yl)-5-(1H-1,2,34-tetrazol-5-yl)-N-(4-(chlorodifluoromethoxy)phenyl)nicotinamide]
- IC50 [1]: > 1000 nM

SMILES: O=C(Nc1ccc(OC(F)(F)Cl)cc1)c1cnc(N2CC[C@@H](O)C2)c(-c2ccn[nH]2)c1 [ABL-001, (R)—N-(4-(chlorodifluoromethoxy)phenyl)-6-(3-hydroxypyrrolidin-1-yl)-5-(1H-pyrazol-5-yl)nicotinamide, reference compound]
- eradication of CML in a mouse model [4]: effective in eradicating CML
- F (oral availability) [3]: 19.86%
